Assay results as given in patent publication US20200085047A1, “Use of an Acyclic Picolinamide Compound as a Fungicide for Control of Phytopathogenic Fungi in Vegetables” (Dow AgroSciences LLC, priority 2017, published 2020).

Legend:
Format in all cases: in vivo
Mycovellosiella fulva = assay: Field assessment of Mycovellosiella fulva (FULVFU) on tomato, curative; details: 10% SC; for Percent control based on AUDPC, FULVFU, adjuvant II: Agnique BP420 (50% w/w at 0.3% v/v); for Percent control based on AUDPC, FULVFU, adjuvant I: no adjuvant
Description: Field assessment of Mycovellosiella fulva (FULVFU) on tomato:
A 10% SC formulation of compound I was tanked mixed with four different adjuvants: Agnique BP420 (50% w/w at 0.3% v/v); Trycol (50% w/w at 0.1% v/v); Ethomeen T18H (50% w/w at 0.2% v/v); and Phase II (50% w/w at 0.2% v/v). A fungicidal treatment containing formulations of compound I, either alone or with adjuvants, was sprayed on tomato plants four times, the first application approximately 3 months after planting, with the following three applications in 7-10 day intervals. Formulations of compound I were applied at rates of 50, 100, 150 and 200 grams of active ingredient per hectare (g ai/ha). The experimental plots were inoculated with the leaf mold pathogen 7 days before the first application (curative). The treatment was part of an experimental trial designed as a randomized complete block with four replications and a plot of approximately 2.5×1.4 m. Formulations of compound I were applied at water volume of 675 L/ha.
Disease severity was recorded as a percentage of visual diseased foliage (6 random plants per plot). Tomato leaf mold infection was assessed five times at 7 days after the first application (7 DAAA), 7 DAAB, 5 DAAC, followed by 7 and 12 DAAD. Area under the disease progress curve (AUDPC) was calculated for each plot using the sets of recorded severity data. Relative AUDPC (% control based on AUDPC) was calculated as percent of the nontreated control.

Erysiphe cichoracearum = assay: Field assessment of Erysiphe cichoracearum (ERYSCI) on cucumber, 2 day protectant; details: 5% EC + Trycol
Description: Field Assessment of Erysiphe Cichoracearum (ERYSCI) on Cucumber:
Assessment of compound I of ERYSCI on cucumbers, in both protectant and curative fashion, was performed in two separate field trials. For the two day protectant test (2DP), a fungicidal treatment containing a 5% EC formulation of compound I plus an adjuvant (Trycol, 50% w/w at 0.2% v/v), was sprayed on cucumber plants (CUMSA) twice, the first application at the fruiting stage 41 days after planting, with the following application after 7 days. Formulations of compound I were applied at rates of 50, 100, and 150 grams of active ingredient per hectare (g ai/ha). The experimental plots were inoculated with the powdery mildew pathogen 2 days after the first application. The treatment was part of an experimental trial designed as a randomized complete block with four replications and a plot of approximately 2×1 m, with formulations of compound I being applied at water volume of 1200 L/ha based on seedling sizes.
Disease severity was assessed as percent diseased area of cucumber foliage per plant (6 plants per plot randomly). Cucumber powdery mildew infection was assessed three times, 7 days after application A (DAAA), and 7 and 14 DAAB. Area under the disease progress curve (AUDPC) was calculated for each plot using the sets of recorded visual infection data. Relative AUDPC (% control based on AUDPC) was calculated as percent of the nontreated control.

Colletotrichum capsici = assay: Field assessment of Colletotrichum capsici (COLLCA) on hot peppers, 4 day curative; details: 5% EC + Trycol, hot pepper
Description: Field Assessment of Colletotrichum capsici (COLLCA) on Hot Peppers:
For the 4 day curative trial, a fungicidal treatment containing a 5% EC formulation of compound I plus an adjuvant (Trycol, 50% w/w at 0.2% v/v), was sprayed on hot pepper plants (CPSAN) twice, the first application at the flowering and fruiting stage 59 days after planting, with the second application after 7 days. Formulations of compound I were applied at rates of 50, 100, 150 and 200 grams of active ingredient per hectare (g ai/ha). The experimental plots were inoculated with the anthracnose pathogen 4 days before the first application (curative). The treatment was part of an experimental trial designed as a randomized complete block with four replications and a plot of approximately 2×1 m, with formulations of compound I being applied at water volume of 1200 L/ha.
Disease severity was assessed as the percent fruit area diseased per plant (6 plants per plot randomly). Anthracnose infection was assessed four times, 7 days after application A (DAAA), plus 7, 14 and 21 DAAB. Area under the disease progress curve (AUDPC) was calculated for each plot using the sets of recorded visual infection data. Relative AUDPC (% control based on AUDPC) was calculated as percent of the nontreated control.

Alternaria solani = assay: Field assessment of Alternaria solani (ALTESO) on tomato, trial 1 (inoculated); details: for Percent disease control on tomato fruits (AUDPC), Trial 1, 5% EC: 5% EC + Agnique BP420, fruits; for Percent disease control on tomato leaves (AUDPC), Trial 1, 5% EC: 5% EC + Agnique BP420, leaves; for Percent disease control on tomato fruits (AUDPC), Trial 1, 10% SC: 10% SC + Agnique BP420, fruits; for Percent disease control on tomato leaves (AUDPC), Trial 1, 10% SC: 10% SC + Agnique BP420, leaves
Description: Field Assessment of Alternaria solani (ALTESO) on Tomato:
Assessment of compound I of ALTESO on tomato was performed in two separate field trials. In the first trial, a fungicidal treatment containing Compound I, applied in both a 5% EC and 10% SC formulation and tank mixed with an adjuvant (Agnique BP420, 50% w/w at 0.3% v/v), was sprayed on tomato plants (LYPES) at approximately 60-70 cm in height at rates of 100 and 200 grams of active ingredient per hectare (g ai/ha). The trial was based on five foliar applications at 7 day intervals with inoculation with the early blight pathogen 2 days after the first application. The treatment was part of an experimental trial designed as a randomized complete block with four replications and a plot of approximately 1.5×4 m. Compound I was applied at water volume of 1000 L/ha with an AZO backpack sprayer using compressed air.
Disease severity was recorded as percent diseased area on a random selection of 20 leaves and 20 fruits per plot. Percent control was assessed with 6 evaluations made between 0-35 days after the first application, DAA1. Area under the disease progress curve (AUDPC) was calculated for each plot using the sets of recorded severity data. Relative AUDPC (% control based on AUDPC) was calculated as percent of the nontreated control.

COc1ccnc(C(=O)N[C@@H](C)C(=O)O[C@@H](C)C(c2ccc(F)cc2)c2ccc(F)cc2)c1OC(C)=O [Compound I, (S)-1,1-bis(4-fluorophenyl)propan-2-yl (3-acetoxy-4-methoxypicolinoyl)-L-alaninate]
Percent control based on AUDPC, FULVFU, adjuvant II (Mycovellosiella fulva; 50 g ai/ha): A (76-100)
Percent control based on AUDPC, FULVFU, adjuvant I (Mycovellosiella fulva; 50 g ai/ha): C (26-50)
Percent control based on AUDPC, FULVFU, adjuvant II (Mycovellosiella fulva; 100 g ai/ha): A (76-100)
Percent control based on AUDPC, FULVFU, adjuvant IV (Mycovellosiella fulva; 100 g ai/ha, Ethomeen T18H (50% w/w at 0.2% v/v)): B (51-75)
Percent control based on AUDPC, FULVFU, adjuvant V (Mycovellosiella fulva; 100 g ai/ha, Phase II (50% w/w at 0.2% v/v)): A (76-100)
Percent control based on AUDPC, FULVFU, adjuvant III (Mycovellosiella fulva; 100 g ai/ha, Trycol (50% w/w at 0.1% v/v)): A (76-100)
Percent control based on AUDPC, FULVFU, adjuvant I (Mycovellosiella fulva; 100 g ai/ha): C (26-50)
Percent control based on AUDPC, FULVFU, adjuvant II (Mycovellosiella fulva; 150 g ai/ha): A (76-100)
Percent control based on AUDPC, FULVFU, adjuvant II (Mycovellosiella fulva; 200 g ai/ha): A (76-100)
Percent control based on AUDPC, ERYSCI 2 DP (Erysiphe cichoracearum; 50 g ai/ha): A (76-100)
Percent control based on AUDPC, ERYSCI 2 DP (Erysiphe cichoracearum; 100 g ai/ha): A (76-100)
Percent control based on AUDPC, ERYSCI 2 DP (Erysiphe cichoracearum; 150 g ai/ha): A (76-100)
Percent control based on AUDPC, COLLCA 4 DC (Colletotrichum capsici; 50 g ai/ha): C (26-50)
Percent control based on AUDPC, COLLCA 4 DC (Colletotrichum capsici; 100 g ai/ha): B (51-75)
Percent control based on AUDPC, COLLCA 4 DC (Colletotrichum capsici; 150 g ai/ha): B (51-75)
Percent control based on AUDPC, COLLCA 4 DC (Colletotrichum capsici; 200 g ai/ha): B (51-75)
Percent disease control on tomato fruits (AUDPC), Trial 1, 5% EC (Alternaria solani; 100 g ai/ha): A (76-100)
Percent disease control on tomato leaves (AUDPC), Trial 1, 5% EC (Alternaria solani; 100 g ai/ha): A (76-100)
Percent disease control on tomato fruits (AUDPC), Trial 1, 10% SC (Alternaria solani; 100 g ai/ha): A (76-100)
Percent disease control on tomato leaves (AUDPC), Trial 1, 10% SC (Alternaria solani; 100 g ai/ha): A (76-100)
Percent disease control on tomato fruits (AUDPC), Trial 1, 5% EC (Alternaria solani; 200 g ai/ha): A (76-100)
Percent disease control on tomato leaves (AUDPC), Trial 1, 5% EC (Alternaria solani; 200 g ai/ha): A (76-100)
Percent disease control on tomato fruits (AUDPC), Trial 1, 10% SC (Alternaria solani; 200 g ai/ha): A (76-100)
Percent disease control on tomato leaves (AUDPC), Trial 1, 10% SC (Alternaria solani; 200 g ai/ha): A (76-100)
